From PMC7619385 (ACS infectious diseases, 2025) come the findings set out here.

Molecules are shown by their SMILES. Read-outs that look alike come from different tables or passages of the source.

One assay deals with T1, LmxCLK1 (Leishmania mexicana, UniProt E9AMP2).
T1 sequence (E9AMP2 1-422): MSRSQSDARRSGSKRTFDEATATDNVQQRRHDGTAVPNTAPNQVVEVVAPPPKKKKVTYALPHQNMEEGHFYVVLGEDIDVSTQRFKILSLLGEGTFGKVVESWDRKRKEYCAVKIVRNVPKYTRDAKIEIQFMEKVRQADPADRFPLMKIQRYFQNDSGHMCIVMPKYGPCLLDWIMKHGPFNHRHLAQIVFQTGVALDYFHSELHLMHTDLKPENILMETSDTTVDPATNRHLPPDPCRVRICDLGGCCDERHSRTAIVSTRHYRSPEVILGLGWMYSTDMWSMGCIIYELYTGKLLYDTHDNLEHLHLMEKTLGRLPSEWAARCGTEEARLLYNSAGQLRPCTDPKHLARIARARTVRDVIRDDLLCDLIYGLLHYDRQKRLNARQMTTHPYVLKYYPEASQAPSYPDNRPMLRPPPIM
Nature of the assay: biochemical. It counts as binding.

The target in another assay is NLuc::LmxCLK1 (Leishmania mexicana, UniProt E9AMP2). Put plainly: cell-based. It counts as cell-based. To be noted: for Target occupancy Run 1 / Target occupancy Run 2 / Target occupancy Average: 10 µM compound, tracer SV366, promastigotes; for Target occupancy Average: mean of two experiments. As for the experimental part: All compounds were tested at a fixed concentration of 10 µM to enable direct comparison of their target occupancy in live cells.
Serially diluted probes (5 µL) were added to 85 µL of cells in culture media or 85 µL of purified protein. Final well volumes were adjusted to 100 µL with sterile Opti-MEM™ I Reduced Serum Medium (Thermo-Scientific) – for wells containing cells; or Kinase Buffer - for wells containing purified protein. For tracer displacement assays, samples were prepared as above, but final volume was brought to 100 µL by addition of vehicle or serially-diluted test compounds. Final DMSO concentration in these assays was 1%. […] Light emissions at 460+10 nm (BRET donor) and at 610+20 nm (BRET acceptor) were sequentially recorded (integration time = 0.5 s, gain = 3600) using a luminometer (BMG LABTECH Clariostar or Biotek Synergy HT). BRET values are reported in milli-BRET (mBRET) units (mBU), obtained by dividing the acceptor luminescence by the donor luminescence and multiplying the result by a factor of 1,000. BRET values were converted to blank-corrected probe occupancies (%) according to equation [1]: (1) Probeoccupancy(%)=X−Z/Y−Z×100 where X = mBRET value in the presence of the test compound and the probe, Y = mBRET value in the presence of probe only, and Z = mBRET value in the absence of probe and test compound. […]

Where [1] appears, read: DSF, 10 µM compound, 2 µM LmxCLK1, Run 1.
The mark [2] stands for this setting: DSF, 10 µM compound, 2 µM LmxCLK1, Run 2.
[3] abbreviates: DSF, 10 µM compound, 2 µM LmxCLK1, mean of two runs.
The mark [4] stands for this setting: DSF, 10 µM compound, 2 µM LmxCLK1, Run 1, read-out: ΔTm Run 1.
Where [5] appears, read: DSF, 10 µM compound, 2 µM LmxCLK1, Run 2, read-out: ΔTm Run 2.
The mark [6] stands for this setting: DSF, 10 µM compound, 2 µM LmxCLK1, mean of two runs, read-out: ΔTm Average.
[7] abbreviates: read-out: Target occupancy Average.
Where [8] appears, read: read-out: Target occupancy Run 1.
Setting [9] is: read-out: Target occupancy Run 2.

In the case of `C#Cc1cccc(Nc2ncnc3cc(OCCOC)c(OCCO)cc23)c1` [OSI-420], the “ΔTm Run 1” value at LmxCLK1 (setting [1]) came out at 0.2 °C. Further, at LmxCLK1 (setting [2]), the “ΔTm Run 2” value amounted to 0.1 °C. In addition, the “ΔTm Average” value at LmxCLK1 (setting [3]) turned out to be 0.1 °C. Also, at NLuc::LmxCLK1, the “Target occupancy Run 1” value is -6.8%, the “Target occupancy Run 2” value is on record as 3.7% and the “Target occupancy Average” value was -1.5%.
By ΔTm is commonly meant the shift of the melting midpoint relative to a reference. Turning to `COc1cccc2cc(-c3nc([C@H]4CC[C@H](C(=O)O)CC4)n4ncnc(N)c34)[nH]c12` [OSI-027], the ΔTm at 10 µM was 0.1 °C at LmxCLK1 (setting [4]), -0.4 °C on LmxCLK1 (setting [5]) and -0.2 °C on LmxCLK1 (setting [6]). Also, the receptor occupancy at 10 µM was -8.9% at NLuc::LmxCLK1 (setting [7]), 5.5% at NLuc::LmxCLK1 (setting [8]) and -23.2% at NLuc::LmxCLK1 (setting [9]).
Consider `Cc1[nH]c(/C=C2\C(=O)Nc3ccc(S(=O)(=O)N(C)c4cccc(Cl)c4)cc32)c(C)c1C(=O)N1CCN(C)CC1` [SU11274], for which the ΔTm at 10 µM on LmxCLK1 (setting [4]) was -0.1 °C; at LmxCLK1 (setting [5]) it was -0.2 °C; on LmxCLK1 (setting [6]) it was -0.2 °C. Also, the receptor occupancy at 10 µM is -6.7% on NLuc::LmxCLK1 (setting [7]), -7.3% on NLuc::LmxCLK1 (setting [8]) and -6% on NLuc::LmxCLK1 (setting [9]).
Consider `O=C1Nc2ccc(I)cc2/C1=C/c1cc(Br)c(O)c(Br)c1` [GW5074], for which the “ΔTm Run 1” value on LmxCLK1 (setting [1]) amounted to 0.0 °C. Further, the “ΔTm Run 2” value at LmxCLK1 (setting [2]) was -0.4 °C. The “ΔTm Average” value on LmxCLK1 (setting [3]) was -0.2 °C. For the same molecule, at NLuc::LmxCLK1, the “Target occupancy Run 1” value is reported as -7.5%, the “Target occupancy Run 2” value was -6.2% and the “Target occupancy Average” value is -6.8%.
As for `O=C(/C=C/c1ccc2ccccc2n1)c1ccncc1` [PFK15], at LmxCLK1, the ΔTm Average amounted to 0.1 °C, the ΔTm Run 1 is 0.2 °C and the ΔTm Run 2 stood at 0.1 °C. Further, at NLuc::LmxCLK1, the “Target occupancy Run 1” value is recorded as -10.7%, the “Target occupancy Run 2” value was -9.2% and the “Target occupancy Average” value is reported as -10.0%.
On to `O=C(/C=C/c1ccc(O)c(O)c1)c1ccc(O)cc1O` [Butein], for which the ΔTm at 10 µM on LmxCLK1 (setting [4]) was 0 °C; at LmxCLK1 (setting [5]), 0.4 °C; on LmxCLK1 (setting [6]), 0.2 °C. For the same molecule, the figures for the receptor occupancy at 10 µM at NLuc::LmxCLK1 (setting [7]), at NLuc::LmxCLK1 (setting [8]) and on NLuc::LmxCLK1 (setting [9]) were -10.8%, 3.3% and -25%, respectively.
With `COc1cc(Nc2ncc(F)c(Nc3ccc4c(n3)N(COP(=O)(O)O)C(=O)C(C)(C)O4)n2)cc(OC)c1OC` [Fostamatinib (R788)], the “ΔTm Run 1” value on LmxCLK1 (setting [1]) was 0.2 °C. Further, the “ΔTm Run 2” value on LmxCLK1 (setting [2]) amounted to 0.2 °C. Besides, the “ΔTm Average” value on LmxCLK1 (setting [3]) stood at 0.2 °C. At NLuc::LmxCLK1, the “Target occupancy Run 1” value stood at 0.9%, the “Target occupancy Run 2” value is -17.9% and the “Target occupancy Average” value is listed as -8.5%.
On to `CN(C[C@@H]1COCCO1)S(=O)(=O)Nc1ccc2ccc3ncc(-c4cnn(C)c4)cc3c(=O)c2c1` [MK-2461], for which the ΔTm at 10 µM stood at 0 °C on LmxCLK1 (setting [4]), 0.2 °C on LmxCLK1 (setting [5]) and 0.1 °C at LmxCLK1 (setting [6]). The results for the receptor occupancy at 10 µM at NLuc::LmxCLK1 (setting [7]), at NLuc::LmxCLK1 (setting [8]) and at NLuc::LmxCLK1 (setting [9]) were -2.7%, -9.3% and 3.8%, respectively.
`O=C1NC(=O)/C(=C/c2ccc3nccc(-c4ccncc4)c3c2)S1` [GSK1059615]: the ΔTm at 10 µM is 0.3 °C on LmxCLK1 (setting [4]), -0.2 °C at LmxCLK1 (setting [5]) and 0 °C at LmxCLK1 (setting [6]). Further, the receptor occupancy at 10 µM at NLuc::LmxCLK1 (setting [7]) was -2.8%; at NLuc::LmxCLK1 (setting [8]) it was -4.2%; at NLuc::LmxCLK1 (setting [9]), -1.5%.
Regarding `O=c1cc(-c2cccc3c2Sc2ccccc2S3)oc(N2CCOCC2)c1` [KU-55933 (ATM Kinase Inhibitor)], at LmxCLK1 (setting [1]), the “ΔTm Run 1” value was 0.6 °C. For the same molecule, at LmxCLK1 (setting [2]), the “ΔTm Run 2” value is 0.2 °C. In addition, on LmxCLK1 (setting [3]), the “ΔTm Average” value came out at 0.4 °C. Also, on NLuc::LmxCLK1, the “Target occupancy Run 1” value was found to be 4.0%, the “Target occupancy Run 2” value is reported as -21.9% and the “Target occupancy Average” value was -9.0%.
As for `O=C(NCc1ccccc1)c1csc(Nc2ccncn2)n1` [Thiazovivin], the “ΔTm Run 1” value at LmxCLK1 (setting [1]) turned out to be 0.3 °C. Besides, the “ΔTm Run 2” value on LmxCLK1 (setting [2]) was 0.0 °C. Besides, at LmxCLK1 (setting [3]), the “ΔTm Average” value came out at 0.2 °C. Also, on NLuc::LmxCLK1, the “Target occupancy Run 1” value is -3.6%, the “Target occupancy Run 2” value was 1.5% and the “Target occupancy Average” value is -1.1%.
For `COc1ccc(Cl)c(Nc2nc3ccccc3nc2NS(=O)(=O)c2cccc(NC(=O)C(C)(C)N)c2)c1` [XL147], the ΔTm at 10 µM at LmxCLK1 (setting [4]) was -0.1 °C; on LmxCLK1 (setting [5]), 0.8 °C; at LmxCLK1 (setting [6]) it was 0.4 °C. Further, the receptor occupancy at 10 µM was -5% at NLuc::LmxCLK1 (setting [7]), -8.3% on NLuc::LmxCLK1 (setting [8]) and -1.7% at NLuc::LmxCLK1 (setting [9]).
Consider `CS(=O)(=O)c1ccc(-c2cnc(N)c(C(=O)Nc3ccccc3)n2)cc1` [VE-821], for which the figures for the ΔTm at 10 µM on LmxCLK1 (setting [4]), at LmxCLK1 (setting [5]) and on LmxCLK1 (setting [6]) were -0.2 °C, -0.5 °C and -0.4 °C, respectively. In addition, the receptor occupancy at 10 µM was -2.9% on NLuc::LmxCLK1 (setting [7]), -11.1% at NLuc::LmxCLK1 (setting [8]) and 5.3% at NLuc::LmxCLK1 (setting [9]).
For `CNc1nc(Nc2cnn([C@H]3CCN(C4COC4)C[C@@H]3F)c2Cl)ncc1C(F)(F)F` [GNE-9605], at LmxCLK1, the “ΔTm Average” value was -0.4, the “ΔTm Run 1” value was -0.2 and the “ΔTm Run 2” value is -0.5. On NLuc::LmxCLK1, the “Target occupancy Run 1” value worked out at 3.1%, the “Target occupancy Run 2” value was -5.2% and the “Target occupancy Average” value is on record as -1.1%.
Turning to `Cn1cc(C2=C(c3ccc(Cl)cc3Cl)C(=O)NC2=O)c2ccccc21` [SB216763], the results for the ΔTm at 10 µM on LmxCLK1 (setting [4]), at LmxCLK1 (setting [5]) and on LmxCLK1 (setting [6]) were 0.1 °C, -0.1 °C and 0 °C, respectively. Further, the figures for the receptor occupancy at 10 µM at NLuc::LmxCLK1 (setting [7]), at NLuc::LmxCLK1 (setting [8]) and on NLuc::LmxCLK1 (setting [9]) were -4.4%, 0.9% and -9.6%, respectively.
Regarding `CC(C)(C)n1nc(-c2ccc(Cl)cc2)c2c(N)ncnc21` [PP2], at LmxCLK1, the ΔTm Average was 0 °C, the ΔTm Run 1 came to 0.2 °C and the “ΔTm Run 2” value is on record as -0.2. For the same molecule, at NLuc::LmxCLK1, the “Target occupancy Run 1” value is on record as -3.1%, the “Target occupancy Run 2” value came to 0.5% and the “Target occupancy Average” value is recorded as -1.3%.
On to `O=C(O)c1ccc(-c2c[nH]c3ncc(-c4ccccc4)cc23)cc1C1CCCC1` [GSK650394], for which the ΔTm at 10 µM at LmxCLK1 (setting [4]) was -0.4 °C; at LmxCLK1 (setting [5]), -0.3 °C; at LmxCLK1 (setting [6]), -0.3 °C. For the same molecule, the values for the receptor occupancy at 10 µM at NLuc::LmxCLK1 (setting [7]), on NLuc::LmxCLK1 (setting [8]) and on NLuc::LmxCLK1 (setting [9]) were -8.8%, -24.3% and 6.7%, respectively.
Regarding `N#C/C(=C/c1ccc(O)c(O)c1)C(=O)NCc1ccccc1` [AG-490 (Tyrphostin B42)], the “ΔTm Run 1” value at LmxCLK1 (setting [1]) was found to be 0.1 °C. For the same molecule, the “ΔTm Run 2” value at LmxCLK1 (setting [2]) was determined as 0.2 °C. For the same molecule, the “ΔTm Average” value at LmxCLK1 (setting [3]) stood at 0.1 °C. Further, on NLuc::LmxCLK1, the “Target occupancy Run 1” value is listed as -25.0%, the “Target occupancy Run 2” value is on record as -10.6% and the “Target occupancy Average” value was -17.8%.
With `C[C@H](Nc1ncnc2nc[nH]c12)c1cc2cccc(Cl)c2c(=O)n1-c1ccccc1` [IPI-145 (INK1197)], at NLuc::LmxCLK1, the “Target occupancy Run 1” value is given as -2.8%, the “Target occupancy Run 2” value is given as 0.6% and the “Target occupancy Average” value is recorded as -1.1%.
In the case of `COc1ccc(-c2nc(N3CCOCC3)c3sc(CN(C)c4ncc(C(=O)NO)cn4)cc3n2)cn1` [CUDC-907], the ΔTm at 10 µM is 0.3 °C on LmxCLK1 (setting [4]), -0.2 °C at LmxCLK1 (setting [5]) and 0 °C on LmxCLK1 (setting [6]).
